Laboratory results reported in patent US5428041A, “Antihypercholesterolemic bis-trifluoromethyl-substituted imidazolines and derivatives thereof” (The Du Pont Merck Pharmaceutical Company, priority 1992, dated 1995).
Where a name gives a salt, the structure may show the parent alone. Read-outs that look alike come from different tables or passages of the source.

Experiments:
[1] = target: T1, Acyl-CoA: Cholesterol Acyltransferase (ACAT) (Rattus norvegicus, UniProt Q7TQM4); assay: Inhibition of Acyl-CoA:Cholesterol Acyltransferase (ACAT) in hepatic microsomes; format: biochemical, Sprague Dawley rat
T1 construct: centrifuged at 105,000×g for 1 hour to pellet the microsomes; from tissue; host or cells: liver microsomes of fasted male Sprague Dawley rats
T1 sequence (Q7TQM4 1-524): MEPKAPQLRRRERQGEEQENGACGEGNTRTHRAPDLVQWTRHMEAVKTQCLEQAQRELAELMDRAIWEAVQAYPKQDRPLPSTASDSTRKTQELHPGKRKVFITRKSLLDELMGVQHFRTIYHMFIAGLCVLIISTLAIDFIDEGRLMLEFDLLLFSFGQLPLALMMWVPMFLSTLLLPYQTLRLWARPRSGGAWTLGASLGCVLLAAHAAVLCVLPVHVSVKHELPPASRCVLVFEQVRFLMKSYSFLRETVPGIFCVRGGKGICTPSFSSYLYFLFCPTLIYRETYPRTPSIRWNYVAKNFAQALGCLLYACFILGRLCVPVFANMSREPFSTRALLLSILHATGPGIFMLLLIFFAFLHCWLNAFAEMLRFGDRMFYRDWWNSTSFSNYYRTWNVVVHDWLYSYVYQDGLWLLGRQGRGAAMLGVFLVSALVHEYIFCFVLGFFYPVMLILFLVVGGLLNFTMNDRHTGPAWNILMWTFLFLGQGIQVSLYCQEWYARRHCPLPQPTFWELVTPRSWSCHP
Protocol: A. Assay of the Inhibition of Acyl-CoA: Cholesterol Acyltransferase (ACAT) in Hepatic Microsomes
The ability of the compounds to inhibit ACAT, the enzyme responsible for the intracellular synthesis of cholesteryl esters, was tested as follows. Male Sprague Dawley rates weighing 150-300 g were fed rat chow ad libitum. The animals were fasted for twenty-four hours prior to being sacrificed by decapitation. The livers were perfused in situ with 50 ml of cold 0.25M sucrose, excised and homogenized in three volumes of 0.1M phosphate buffer, pH 7.4, that contained 0.5 mM EDTA (ethylenediaminetetraacetic acid), 1.0 mM glutathione, 0.25M sucrose and 20 mM leupeptin. Microsomes were obtained by differential centrifugation; the supernatant from an initial spin at 15,000×g for 15 minutes was centrifuged at 105,000×g for 1 hour to pellet the microsomes. The microsomes were suspended in homogenization buffer, reisolated by centrifugation, and stored at -70° C. Microsomes were used within one month of preparation.
The control assay in a final volume of 200 μl consisted of 200 μg of microsomal protein, 75 μM ^14 C-oleoyl-CoA (10,000 dpm/nmol) in 0.1M phosphate, pH 7.4, that contained 1 mM glutathione. Compounds were added in 5-10 μl of DMSO (dimethyl sulfoxide or ethanol) and additional controls were run with DMSO or ethanol only. All components, except the oleoyl-CoA, were preincubated for 15 min. at 37° C. prior to the initiation of the reaction by the addition of oleoyl CoA. The assay was terminated after 10 min by the addition of 4 ml of chloroform:methanol (2:1, v/v). 20,000 dpm of ^3 H-cholesteryl oleate and 10 μg of unlabeled cholesteryl oleate and oleic acid were added as an internal standard and carrier, respectively. After allowing 10 min. for lipid extraction, 0.8 ml of deionized water was added to separate the solution into two phases. The lower chloroform phase was collected, dried under nitrogen and resuspended in 100 μl of chloroform. The sample containing the neutral lipids was spotted onto a Gelman ITLC-SA polysilicic acid gel-impregnated sheet, which was developed using a hexane: diethyl ether: acetic acid (170:30:1 v/v/v) mobile phase. The lipids were visualized by their interaction with iodine vapor and the cholesteryl ester spot was scraped into a scintillation vial and counted. The specific activity of ACAT in the control incubation averaged 260 pmol/min/mg microsomal protein. The inhibition of ACAT activity by the compounds is shown in Table 7; the data are expressed as the concentration at which ACAT activity is inhibited by 50% (IC50).

[2] = system: murine macrophage-like cell line J744.A1; assay: Inhibition of cholesterol esterification in mammalian cells (macrophage); format: cell-based; conditions: Mus musculus; J744.A1 macrophage-like cells loaded with ac-LDL, 14C oleic acid
Protocol: B. Assay of the Inhibition of Cholesterol Esterification in Mammalian Cells The esterification of cholesterol was determined in the murine macrophage-like cell line J744.A1. Cells were seeded in 35 mm wells at a density of 300,000 cells per well in 2 mls of Dulbecco's Modified Eagle Medium (DMEM) supplemented with 10% fetal bovine serum (FBS). Cells were incubated at 37° C. in an atmosphere of 5% CO2 and 93% humidity. After 24 hours the media was changed to 0.68 mls 10% FBS-DMEM containing 34 μg of acetylated human low density lipoprotein (ac-LDL) to increase the intracellular concentration of cholesterol and promote esterification. At 41 hours, various inhibitors were added to the cells in DMSO (10 μl/ml maximum). At 43 hours, the cells were pulsed with 0.1 mM ^14 C oleic acid (10,000 dpm/nmol) complexed with BSA (bovine serum albumin) to follow cholesterol ester formation. The experiment was terminated at 45 hours by washing the monolayers 3 times with 3 ml of Tris-buffered saline at 4° C. The lipids were extracted by incubating the monolayers with 1.5 ml of hexane: isopropanol (3:2, v/v) for 30 min. under gentle agitation. During this period, 10,000 dpm ^3 H-cholesteryl linoleate and 10 μg of cholesteryl oleate were added as an internal standard and carrier respectively. The organic solvent was remoted and the cells were washed with an additional 1.0 ml of hexane: isopropanol which was combined with the original extract. The cells were allowed to dry overnight, digested with 1.5 ml of 0.2 N sodium hydroxide for 1 hour and an aliquot of the solubilized protein used for protein determination using the Lowry method. […] Individual lipids were visualized with iodine and the cholesteryl ester spot cut out and transferred to scintillation vials to determine the amount of radioactivity.

[3] = rat hepatic microsomes, 14C-oleoyl-CoA, 37° C., pH 7.4, read-out: In Vitro ACAT IC50

Row | SMILES | IC50 [1, 3] | IC50 [2] | IC50 [1]
1 | COc1ccc(C2=NC(C(F)(F)F)(C(F)(F)F)C(N(C)C(=O)CCCC(C)C)N2C)cc1 (centres unmarked) [Example 34, N-[4,4-bis(trifluoromethyl)-2-(4-methoxyphenyl)-4,5-dihydro-1-methyl-1H-imidazol-5-yl]-N,5-dimethylhexanamide hydrochloride] | 9 µM | – | –
2 | CN1C(=O)C(C(F)(F)F)(C(F)(F)F)N=C1c1ccc(F)cc1 [Example 123, 2-(4-fluorophenyl)-3,5-dihydro-3-methyl-4,4-bis(trifluoromethyl)-4H-imidazol-4-one] | > 100 µM | – | –
3 | CN(C(=O)C12CCC(C)(C(=O)O1)C2(C)C)C1N(C)C(c2ccc(F)cc2)=NC1(C(F)(F)F)C(F)(F)F (centres unmarked) [Example 26] | 45 µM | 96 µM | –
4 | CN(C(=O)C12CCC(C)(C(=O)O1)C2(C)C)C1N(C)C(c2ccc(F)cc2)=NC1(C(F)(F)F)C(F)(F)F (single isomer, unassigned) [Example 25] | 41 µM | 98 µM | –
5 | CC(C)CCCC(=O)N(C)C1N(C)C(c2ccc(F)cc2)=NC1(C(F)(F)F)C(F)(F)F (centres unmarked) [Example 18, N-[4,4-bis(trifluoromethyl)-2-(4-fluorophenyl)-4,5-dihydro-1-methyl-1H-imidazol-5-yl]-N,5-dimethyl-hexanamide hydrochloride] | 4 µM | – | –
6 | COc1ccc(OC(=O)N=C2N(C)C(c3ccc(OC)cc3)=NC2(C(F)(F)F)C(F)(F)F)cc1 [Example 121] | – | – | 64 µM
7 | CN(C(=O)c1ccc(-c2ccccc2)cc1)C1N(C)C(c2ccc(F)cc2)=NC1(C(F)(F)F)C(F)(F)F (centres unmarked) [Example 15, N-[4,4-bis(trifluoromethyl)-2-(4-fluorophenyl)-4,5-dihydro-1-methyl-1 H-imidazol-5-yl]-N-methyl-[1,1'-biphenyl]-4-carboxamide] | 17 µM | 11 µM | –
8 | CN1C(c2ccc(N3CCCCC3)cc2)=NC(C(F)(F)F)(C(F)(F)F)C1NC(=O)c1ccc(F)cc1 (centres unmarked) [Example 32, N-[4,4-bis(trifluoromethyl)-4,5-dihydro-1-methyl-2-[4-(1-piperidinyl)phenyl]-1H-imidazol-5-yl]-4-fluorobenzamide] | 2 µM | 17 µM | –
9 | CN(C(=O)c1ccc(C(C)(C)C)cc1)C1N(C)C(c2ccc(F)cc2)=NC1(C(F)(F)F)C(F)(F)F (centres unmarked) [Example 13, N-[4,4-bis(trifluoromethyl)-2-(4-fluorophenyl)-4,5-dihydro-1-methyl-1H-imidazol-5-yl]-4-(1,1-dimethylethyl)-N-methylbenzamide] | 4 µM | 18 µM | –
10 | CN(C(=O)c1ccc([N+](=O)[O-])cc1)C1N(C)C(c2ccc(F)cc2)=NC1(C(F)(F)F)C(F)(F)F (centres unmarked) [Example 14, N-[4,4-bis(trifluoromethyl)-2-(4-fluorophenyl)-4,5-dihydro-1-methyl-1H-imidazol-5-yl]-N-methyl-4-nitrobenzamide] | 8 µM | 18 µM | –
11 | CCCCCCC(=O)N(C)C1N(C)C(c2ccc(N3CCCCC3)cc2)=NC1(C(F)(F)F)C(F)(F)F (centres unmarked) [Example 33, N-[4,4-bis(trifluoromethyl)-4,5-dihydro-1-methyl-2-[4-(1-piperidinyl)phenyl]-1H-imidazol-5-yl]-N-methylheptanamide, hydrochloride] | 10 µM | 13 µM | –
12 | CN1C(c2ccc(F)cc2)=NC(C(F)(F)F)(C(F)(F)F)C1NC(=O)c1ccc(N2CCCCC2)cc1 (centres unmarked) [Example 31, N-[4,4-bis(trifluoromethyl)-2-(4-fluorophenyl)-4,5-dihydro-1-methyl-1H-imidazol-5-yl]-4-(1-piperidinyl) benzamide] | 10 µM | 13 µM | –
13 | CN1C(=CC(=O)c2ccc(F)cc2)C(C(F)(F)F)(C(F)(F)F)N=C1c1ccc(F)cc1 [Example 96B, 2-[4,4-bis(trifluoromethyl)-2-(4-fluorophenyl)-4,5-dihydro-1-methyl-1H-imidazol-5-ylidene]-1-(4-fluorophenyl)-1-ethanone] | 19 µM | – | –
14 | Cc1ccc(OC(=O)N=C2N(C)C(c3ccc(C)cc3)=NC2(C(F)(F)F)C(F)(F)F)cc1 [Example 122] | – | – | 49 µM
15 | CCCCCCC(=O)N(C)C1N(C)C(c2ccc(F)cc2)=NC1(C(F)(F)F)C(F)(F)F (centres unmarked) [Example 16, N-[4,4-bis(trifluoromethyl)-2-(4-fluorophenyl)-4,5-dihydro-1-methyl-1H-imidazol-5-yl]-N-methylheptanamide hydrochloride] | 2 µM | 17 µM | –
16 | CCCCCCCCCCCC(=O)N(C)C1N(C)C(c2ccc(F)cc2)=NC1(C(F)(F)F)C(F)(F)F (centres unmarked) [Example 17] | 6 µM | – | –
17 | CN(C(=O)c1ccc(C#N)cc1)C1N(C)C(c2ccc(C#N)cc2)=NC1(C(F)(F)F)C(F)(F)F (centres unmarked) [Example R, N-[4,4-bis(trifluoromethyl)-4,5-dihydro-1-methyl-2-[4-cyanophenyl]-1H-imidazol-5-yl]-N-methyl-4-cyanobenzamide] | 2 µM | 13 µM | –
18 | CCOc1ccc(C(=O)NC2N(C)C(c3ccc(F)cc3)=NC2(C(F)(F)F)C(F)(F)F)cc1 (centres unmarked) [Example 30, N-[4,4-bis(trifluoromethyl)-2-(4-fluorophenyl)-4,5-dihydro-1-methyl-1H-imidazol-5-yl]-4-ethoxybenzamide] | 6 µM | – | –
19 | CN(C(=O)Nc1ccc(F)cc1F)C1N(C)C(c2ccc(F)cc2)=NC1(C(F)(F)F)C(F)(F)F (centres unmarked) [Example 28, N-[4,4-bis(trifluoromethyl)-2-(4-fluorophenyl)-4,5-dihydro-1-methyl-1H-imidazol-5-yl]-N'-2,4-difluorophenyl-N-methylurea] | 22 µM | – | –
20 | CCCCCCCCNC(=O)N(C)C1N(C)C(c2ccc(F)cc2)=NC1(C(F)(F)F)C(F)(F)F (centres unmarked) [Example 29, N-[4,4-bis(trifluoromethyl)-2-(4-fluorophenyl)-4,5-dihydro-1-methyl-1H-imidazol-5-yl]-N'-octyl-N-methylurea hydrochloride] | 16 µM | – | –
21 | COc1ccc(C(=O)N(C)C2N(C)C(c3ccc(F)cc3)=NC2(C(F)(F)F)C(F)(F)F)cc1 (centres unmarked) [Example 12, N-[4,4-bis(trifluoromethyl)-2-(4-fluorophenyl)-4,5-dihydro-1-methyl-1H-imidazol-5-yl]-4-methoxy-N-methylbenzamide] | 6 µM | – | –
22 | CN1C(c2ccc(F)cc2)=NC(C(F)(F)F)(C(F)(F)F)C1NC(=O)c1ccc(F)cc1 (centres unmarked) [Example 10, N-[4,4-bis-(trifluoromethyl)-2-(4-fluorophenyl)-4,5-dihydro-1-methyl-1H-imidazol-5-yl]-4-fluorobenzamide] | 41 µM | – | –
